{"source": "ChEMBL document CHEMBL5154798", "about": "“Structure-based discovery of receptor tyrosine kinase AXL degraders with excellent anti-tumor activity by selectively degrading AXL and inducing methuosis” (Eur J Med Chem, 2022)", "key": {"MDA-MB-231": {"system": "MDA-MB-231", "assay": "Antiproliferative activity against human MDA-MB-231 cells highly expressing AXL after 72 hrs by MTT assay", "settings": "MDA-MB-231, 72 h"}, "4T1": {"system": "4T1", "assay": "Antiproliferative activity against mouse 4T1 cells highly expressing AXL after 72 hrs by MTT assay", "settings": "4T1, 72 h"}, "[1]": {"assay": "Cytotoxicity against human GES1 cells after 72 hrs by MTT assay", "type": "toxicity, cell-based"}, "[2]": {"assay": "Cytotoxicity against human MCF-10A cells after 72 hrs by MTT assay", "type": "toxicity, cell-based"}, "[3]": {"biological_target": "T1, Tyrosine-protein kinase receptor UFO (Homo sapiens, UniProt P30530)", "T1 sequence (P30530 whole entry)": "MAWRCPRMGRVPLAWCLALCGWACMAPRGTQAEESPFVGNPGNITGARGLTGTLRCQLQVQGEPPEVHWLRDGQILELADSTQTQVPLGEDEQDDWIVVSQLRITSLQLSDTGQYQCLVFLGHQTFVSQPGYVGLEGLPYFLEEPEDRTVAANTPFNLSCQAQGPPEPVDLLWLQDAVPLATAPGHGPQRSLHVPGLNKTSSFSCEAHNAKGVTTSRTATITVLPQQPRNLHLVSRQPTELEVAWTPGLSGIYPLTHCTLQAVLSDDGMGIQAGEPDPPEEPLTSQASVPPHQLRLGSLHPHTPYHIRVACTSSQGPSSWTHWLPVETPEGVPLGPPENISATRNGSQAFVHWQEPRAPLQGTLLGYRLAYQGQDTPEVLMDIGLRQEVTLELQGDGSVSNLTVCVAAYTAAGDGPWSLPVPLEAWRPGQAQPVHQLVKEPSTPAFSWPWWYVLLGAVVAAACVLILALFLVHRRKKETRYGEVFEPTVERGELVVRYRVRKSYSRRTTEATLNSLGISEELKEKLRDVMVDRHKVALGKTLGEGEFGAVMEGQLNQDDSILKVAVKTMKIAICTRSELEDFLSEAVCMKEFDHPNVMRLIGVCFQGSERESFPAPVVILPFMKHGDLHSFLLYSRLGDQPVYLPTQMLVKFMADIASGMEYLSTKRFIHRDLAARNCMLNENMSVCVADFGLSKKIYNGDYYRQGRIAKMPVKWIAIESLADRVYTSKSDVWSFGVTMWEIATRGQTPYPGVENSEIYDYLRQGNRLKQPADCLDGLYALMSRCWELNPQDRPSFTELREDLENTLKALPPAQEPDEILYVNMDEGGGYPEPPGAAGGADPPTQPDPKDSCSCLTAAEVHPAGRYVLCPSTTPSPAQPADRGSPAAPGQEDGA", "assay": "Inhibition of AXL (unknown origin) measured by FRET assay"}}}
{"smiles": "Nc1nc(Nc2ccc(CNC(=O)CCCCCNc3cccc4c3CN(C3CCC(=O)NC3=O)C4=O)cc2)nn1-c1cc2c(nn1)-c1ccccc1CCC2", "note": "(centres undefined)", "values": [{"measurement": "IC50", "setting": "MDA-MB-231", "result": 32.8, "unit": "µM"}, {"measurement": "IC50", "setting": "4T1", "result": 29.6, "unit": "µM"}, {"measurement": "IC50 at 72 h", "setting": "[1]", "result": "> 60", "unit": "µM"}, {"measurement": "IC50 at 72 h", "setting": "[2]", "result": "> 60", "unit": "µM"}]}
{"smiles": "Nc1nc(NCCNC(=O)CCCNc2cccc3c2CN(C2CCC(=O)NC2=O)C3=O)nn1-c1ccc(-c2ccccc2)nn1", "note": "(centres undefined)", "values": [{"measurement": "IC50", "setting": "[3]", "result": "> 60", "unit": "µM"}, {"measurement": "IC50", "setting": "MDA-MB-231", "result": "> 60", "unit": "µM"}, {"measurement": "IC50", "setting": "4T1", "result": "> 60", "unit": "µM"}, {"measurement": "IC50 at 72 h", "setting": "[1]", "result": "> 60", "unit": "µM"}, {"measurement": "IC50 at 72 h", "setting": "[2]", "result": "> 60", "unit": "µM"}]}
{"smiles": "Nc1nc(NCCNC(=O)CCCNc2cccc3c2CN(C2CCC(=O)NC2=O)C3=O)nn1-c1cc2c(nn1)-c1ccccc1CCC2", "note": "(centres undefined)", "values": [{"measurement": "IC50", "setting": "[3]", "result": "> 60", "unit": "µM"}, {"measurement": "IC50", "setting": "MDA-MB-231", "result": "> 60", "unit": "µM"}, {"measurement": "IC50 at 72 h", "setting": "[1]", "result": "> 60", "unit": "µM"}, {"measurement": "IC50 at 72 h", "setting": "[2]", "result": "> 60", "unit": "µM"}]}
{"smiles": "Nc1nc(NCCNC(=O)CCCCCNc2cccc3c2CN(C2CCC(=O)NC2=O)C3=O)nn1-c1cc2c(nn1)-c1ccccc1CCC2", "note": "(centres undefined)", "values": [{"measurement": "IC50", "setting": "MDA-MB-231", "result": "> 60", "unit": "µM"}, {"measurement": "IC50", "setting": "4T1", "result": 37.5, "unit": "µM"}, {"measurement": "IC50 at 72 h", "setting": "[1]", "result": "> 60", "unit": "µM"}, {"measurement": "IC50 at 72 h", "setting": "[2]", "result": "> 60", "unit": "µM"}]}
{"smiles": "Nc1nc(Nc2ccc(CNC(=O)CCCNc3cccc4c3CN(C3CCC(=O)NC3=O)C4=O)cc2)nn1-c1cc2c(nn1)-c1ccccc1CCC2", "note": "(centres undefined)", "values": [{"measurement": "IC50", "setting": "MDA-MB-231", "result": 41.3, "unit": "µM"}, {"measurement": "IC50", "setting": "4T1", "result": 34.6, "unit": "µM"}, {"measurement": "IC50 at 72 h", "setting": "[1]", "result": "> 60", "unit": "µM"}, {"measurement": "IC50 at 72 h", "setting": "[2]", "result": "> 60", "unit": "µM"}]}
{"smiles": "Nc1nc(Nc2ccc(CNC(=O)CCCCCCCNc3cccc4c3CN(C3CCC(=O)NC3=O)C4=O)cc2)nn1-c1cc2c(nn1)-c1ccccc1CCC2", "note": "(centres undefined)", "values": [{"measurement": "IC50", "setting": "MDA-MB-231", "result": 27.6, "unit": "µM"}, {"measurement": "IC50", "setting": "4T1", "result": 21.1, "unit": "µM"}, {"measurement": "IC50 at 72 h", "setting": "[1]", "result": "> 60", "unit": "µM"}, {"measurement": "IC50 at 72 h", "setting": "[2]", "result": "> 60", "unit": "µM"}]}
{"smiles": "Nc1nc(NCCNC(=O)CCCCNc2cccc3c2CN(C2CCC(=O)NC2=O)C3=O)nn1-c1ccc(-c2ccccc2)nn1", "note": "(centres undefined)", "values": [{"measurement": "IC50", "setting": "MDA-MB-231", "result": 52.2, "unit": "µM"}, {"measurement": "IC50", "setting": "4T1", "result": "> 60", "unit": "µM"}, {"measurement": "IC50 at 72 h", "setting": "[1]", "result": "> 60", "unit": "µM"}, {"measurement": "IC50 at 72 h", "setting": "[2]", "result": "> 60", "unit": "µM"}]}
{"smiles": "Nc1nc(Nc2ccc(CNC(=O)CCCCNc3cccc4c3CN(C3CCC(=O)NC3=O)C4=O)cc2)nn1-c1ccc(-c2ccccc2)nn1", "note": "(centres undefined)", "values": [{"measurement": "IC50", "setting": "MDA-MB-231", "result": 35.7, "unit": "µM"}, {"measurement": "IC50", "setting": "4T1", "result": 54.2, "unit": "µM"}, {"measurement": "IC50 at 72 h", "setting": "[1]", "result": "> 60", "unit": "µM"}, {"measurement": "IC50 at 72 h", "setting": "[2]", "result": "> 60", "unit": "µM"}]}
{"smiles": "Nc1nc(NCCNC(=O)CCCCCCCNc2cccc3c2CN(C2CCC(=O)NC2=O)C3=O)nn1-c1ccc(-c2ccccc2)nn1", "note": "(centres undefined)", "values": [{"measurement": "IC50", "setting": "MDA-MB-231", "result": 34.7, "unit": "µM"}, {"measurement": "IC50", "setting": "4T1", "result": 19.5, "unit": "µM"}, {"measurement": "IC50 at 72 h", "setting": "[1]", "result": "> 60", "unit": "µM"}, {"measurement": "IC50 at 72 h", "setting": "[2]", "result": "> 60", "unit": "µM"}]}
{"smiles": "Nc1nc(NCCNC(=O)CCCCCCNc2cccc3c2CN(C2CCC(=O)NC2=O)C3=O)nn1-c1cc2c(nn1)-c1ccccc1CCC2", "note": "(centres undefined)", "values": [{"measurement": "IC50 at 72 h", "setting": "[1]", "result": "> 60", "unit": "µM"}, {"measurement": "IC50 at 72 h", "setting": "[2]", "result": "> 60", "unit": "µM"}]}
